US20260001928A1 (CORTERIA PHARMACEUTICALS, priority 2022, published 2026)
pEC50: −log10 of the molar value. *1 amine or outer side, *2 acyl side, *3 side chain or, on linkers, in order; H or OH if unused. Where a SMILES comes first, the peptide text is derived from it. Side-chain parts run from the residue outwards. [ ]: non-standard residue; d: D form. The star is where a group is joined. C20 diacid = O=C(O)CCCCCCCCCCCCCCCCCCC(=O)*; C18 diacid = O=C(O)CCCCCCCCCCCCCCCCC(=O)*; C16 diacid = O=C(O)CCCCCCCCCCCCCCC(=O)*; γGlu = O=C(O)[C@H](CCC(=O)[*:2])N[*:1]; NMeI = CC[C@H](C)[C@H](NC)C(=O)O; αMeL = CC(C)C[C@](C)(N)C(=O)O; Abu = CC[C@H](N)C(=O)O; Pentanoyl = CCCCC(=O)*; AEEA = NCCOCCOCC(=O)O; Aib = CC(C)(N)C(=O)O

How the values were obtained:
human CRF2a receptor = biological target: T1, human CRF2a receptor (Homo sapiens, UniProt Q13324); experiment: Activity at human CRF2a receptor, cAMP functional assay in TeloHEAC cells; format: cell-based; conditions: TeloHEAC cells stably expressing human CRF2a receptor, relative to urocortin 2 (100 nM = 100%)
T1 construct: expressed in transfected cells; host or cells: TeloHEAC cells
T1 sequence (Q13324 1-411): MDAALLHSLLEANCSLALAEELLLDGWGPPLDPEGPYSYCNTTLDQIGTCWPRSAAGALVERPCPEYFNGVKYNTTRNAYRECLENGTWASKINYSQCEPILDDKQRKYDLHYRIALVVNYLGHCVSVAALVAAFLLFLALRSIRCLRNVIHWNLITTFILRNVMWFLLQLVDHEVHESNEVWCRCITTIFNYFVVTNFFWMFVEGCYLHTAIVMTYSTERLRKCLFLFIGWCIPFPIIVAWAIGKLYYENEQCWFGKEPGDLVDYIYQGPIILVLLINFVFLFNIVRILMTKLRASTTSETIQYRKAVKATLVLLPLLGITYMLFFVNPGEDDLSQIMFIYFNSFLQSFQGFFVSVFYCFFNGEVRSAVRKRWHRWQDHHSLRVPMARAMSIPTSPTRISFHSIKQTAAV
Summary of the method: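 TeloHEAC cells stably expressing human CRF2a (10000 cells/well) were treated with 16-point 1:2 compound dilutions in HBSS/20 mM HEPES with IBMX for 30 min at 37° C. cAMP was read by HTRF (665/620 nm ratio). EC50 was the concentration giving 50% activation, with 100 nM urocortin 2 set as 100%.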

CFR1R receptor = biological target: T2, CFR1R receptor (Homo sapiens, UniProt P34998); experiment: Activity at anti-target CFR1R receptor, cAMP assay in CRF1R-overexpression CHO-K1 cells; format: cell-based; conditions: 100% = Sauvagine at 100 nM; for pEC50: cAMP
T2 construct: host or cells: CHO-K1 (clone 2)
T2 sequence (P34998 24-415): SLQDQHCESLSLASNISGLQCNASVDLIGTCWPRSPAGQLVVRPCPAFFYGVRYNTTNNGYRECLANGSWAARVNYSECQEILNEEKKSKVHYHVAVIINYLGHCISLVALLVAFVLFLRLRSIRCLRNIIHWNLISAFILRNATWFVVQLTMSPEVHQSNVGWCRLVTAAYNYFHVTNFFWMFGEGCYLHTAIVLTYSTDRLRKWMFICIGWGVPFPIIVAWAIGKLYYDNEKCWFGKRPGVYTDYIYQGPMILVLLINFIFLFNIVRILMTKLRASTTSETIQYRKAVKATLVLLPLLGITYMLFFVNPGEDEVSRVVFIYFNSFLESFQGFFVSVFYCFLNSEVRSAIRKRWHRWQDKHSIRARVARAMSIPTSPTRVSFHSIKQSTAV
Summary of the method: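 Clone 2 cells were cultured in F12 (Hams)/10% FBS/400 μg/ml G418 at 37° C./5% CO2, frozen in medium with 10% DMSO, and thawed vials used. The protocol followed the TeloHAEC procedure, with 4000 cells/well final and Sauvagine at 100 nM defining 100% activation.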

pEC50 (human CRF2a receptor)	Emax (% I) (CFR1R receptor)	pEC50 (CFR1R receptor)	SMILES
9.74	79 % I	–	CCCCC(=O)N[C@H](C(=O)N[C@@H](CC(C)C)C(=O)N[C@@H](CO)C(=O)N[C@@H](CC(C)C)C(=O)N[C@@H](CC(=O)O)C(=O)N[C@@H](C(=O)N1CCC[C@H]1C(=O)N[C@H](C(=O)N[C@@H](CCCCN)C(=O)N[C@@H](CC(C)C)C(=O)N[C@@H](CCCCNC(=O)CC[C@H](NC(=O)CCCCCCCCCCCCCCCCCCC(=O)O)C(=O)O)C(=O)N[C@@H](CCCCN)C(=O)N[C@H](C(=O)N[C@@H](CC(C)C)C(=O)N[C@@H](CC(C)C)C(=O)N[C@@H](CCC(=O)O)C(=O)N[C@@H](CCC(N)=O)C(=O)N[C@@H](CCC(=O)O)C(=O)N[C@@H](C)C(=O)N[C@@H](CCC(N)=O)C(=O)N[C@@H](CCCCN)C(=O)N[C@@H](CCCCN)C(=O)N[C@@H](CCC(N)=O)C(=O)N[C@@H](CCCNC(=N)N)C(=O)N[C@@H](CCC(=O)O)C(=O)N[C@@H](CCC(N)=O)C(=O)N[C@@H](C)C(=O)N[C@@H](CCC(=O)O)C(=O)N[C@H](C(=O)N[C@@H](CC(N)=O)C(=O)NC(C)(C)C(=O)N[C@@H](CCC(N)=O)C(=O)N[C@H](C(=O)N[C@@H](CC(C)C)C(=O)N[C@@H](C)C(=O)N[C@@H](CCC(N)=O)C(=O)N[C@H](C(N)=O)C(C)C)[C@@H](C)CC)[C@@H](C)O)[C@@H](C)CC)[C@@H](C)CC)C(C)C)C(C)C [compound 221] (Pentanoyl-VLSLD[dV]PIKLK([γGlu-C20 diacid])KILLEQEAQKKQREQAETN[Aib]QILAQV-NH2)
9.89	22 % I	< 6.60	CCCCC(=O)N[C@H](C(=O)N[C@@H](CC(C)C)C(=O)N[C@@H](CO)C(=O)N[C@@H](CC(C)C)C(=O)N[C@@H](CC(=O)O)C(=O)N[C@@H](C(=O)N1CCC[C@H]1C(=O)N[C@H](C(=O)N[C@@H](CCCCN)C(=O)N[C@@H](CC(C)C)C(=O)N[C@@H](CCCCNC(=O)CC[C@H](NC(=O)CCCCCCCCCCCCCCC(=O)O)C(=O)O)C(=O)N[C@@H](CCCCN)C(=O)N[C@H](C(=O)N[C@@H](CC(C)C)C(=O)N[C@@H](CC(C)C)C(=O)N[C@@H](CCC(=O)O)C(=O)N[C@@H](CCC(N)=O)C(=O)N[C@@H](CCC(=O)O)C(=O)N[C@@H](CCCCN)C(=O)N[C@@H](CCC(N)=O)C(=O)N[C@@H](CCCCN)C(=O)N[C@@H](CCCCN)C(=O)N[C@@H](CCC(N)=O)C(=O)N[C@@H](CCCNC(=N)N)C(=O)N[C@@H](CCC(=O)O)C(=O)N[C@@H](CCC(N)=O)C(=O)N[C@@H](C)C(=O)N[C@@H](CCC(=O)O)C(=O)N[C@H](C(=O)N[C@@H](CC(N)=O)C(=O)N[C@@H](CCCCN)C(=O)N[C@@H](CCC(N)=O)C(=O)N[C@H](C(=O)N[C@@H](CC(C)C)C(=O)N[C@@H](C)C(=O)N[C@@H](CCC(N)=O)C(=O)N[C@H](C(N)=O)C(C)C)[C@@H](C)CC)[C@@H](C)O)[C@@H](C)CC)[C@@H](C)CC)C(C)C)C(C)C [compound 37] (Pentanoyl-VLSLD[dV]PIKLK([γGlu-C16 diacid])KILLEQEKQKKQREQAETNKQILAQV-NH2)
9.74	6 % I	< 6.60	CC[C@H](NC(=O)[C@H](CC(N)=O)NC(=O)[C@@H](NC(=O)[C@H](CCC(=O)O)NC(=O)[C@H](C)NC(=O)[C@H](CCC(N)=O)NC(=O)[C@H](CCC(=O)O)NC(=O)[C@H](CCCNC(=N)N)NC(=O)[C@H](CCC(N)=O)NC(=O)[C@H](CCCCN)NC(=O)[C@H](CCCCN)NC(=O)[C@H](CCC(N)=O)NC(=O)[C@H](CCCCN)NC(=O)[C@H](CCC(=O)O)NC(=O)[C@H](CCC(N)=O)NC(=O)[C@H](CCC(=O)O)NC(=O)[C@H](CC(C)C)NC(=O)[C@H](CC(C)C)NC(=O)[C@@H](NC(=O)[C@H](CCCCN)NC(=O)[C@H](CCCCNC(=O)COCCOCCNC(=O)COCCOCCNC(=O)CC[C@H](NC(=O)CCCCCCCCCCCCCCCCC(=O)O)C(=O)O)NC(=O)[C@H](CC(C)C)NC(=O)[C@H](CCCCN)NC(=O)[C@@H](NC(=O)[C@@H]1CCCN1C(=O)[C@H](NC(=O)[C@H](CC(=O)O)NC(=O)[C@H](CC(C)C)NC(=O)[C@H](CO)NC(=O)[C@H](CC(C)C)NC(=O)[C@@H](NC(=O)[C@@H](NC)[C@@H](C)CC)C(C)C)C(C)C)[C@@H](C)CC)[C@@H](C)CC)[C@@H](C)O)C(=O)N[C@@H](CCC(N)=O)C(=O)N[C@H](C(=O)N[C@@H](CC(C)C)C(=O)N[C@@H](C)C(=O)N[C@@H](CCC(N)=O)C(=O)N[C@H](C(N)=O)C(C)C)[C@@H](C)CC [compound 114] (H-[NMeI]VLSLD[dV]PIKLK([AEEA-AEEA-γGlu-C18 diacid])KILLEQEKQKKQREQAETN[Abu]QILAQV-NH2)
9.02	5 % I	< 6.60	CC[C@H](C)[C@H](NC(=O)[C@H](CCC(N)=O)NC(=O)C(C)(C)NC(=O)[C@H](CC(N)=O)NC(=O)[C@@H](NC(=O)[C@H](CCC(=O)O)NC(=O)[C@H](C)NC(=O)[C@H](CCC(N)=O)NC(=O)[C@H](CCC(=O)O)NC(=O)[C@H](CCCNC(=N)N)NC(=O)[C@H](CCC(N)=O)NC(=O)[C@H](CCCCN)NC(=O)[C@H](CCCCN)NC(=O)[C@H](CCC(N)=O)NC(=O)[C@H](CCCCN)NC(=O)[C@H](CCC(=O)O)NC(=O)[C@H](CCC(N)=O)NC(=O)[C@H](CCC(=O)O)NC(=O)[C@H](CC(C)C)NC(=O)[C@H](CC(C)C)NC(=O)[C@@H](NC(=O)[C@H](CCCCN)NC(=O)[C@H](CCCCNC(=O)CC[C@H](NC(=O)CCCCCCCCCCCCCCC(=O)O)C(=O)O)NC(=O)[C@H](CC(C)C)NC(=O)[C@H](CCCCN)NC(=O)[C@@H](NC(=O)[C@@H]1CCCN1C(=O)[C@H](NC(=O)[C@H](CC(=O)O)NC(=O)[C@H](CC(C)C)NC(=O)[C@H](CO)NC(=O)[C@H](CC(C)C)NC(=O)[C@@H](NC(C)=O)C(C)C)C(C)C)[C@@H](C)CC)[C@@H](C)CC)[C@@H](C)O)C(=O)N[C@@H](CC(C)C)C(=O)N[C@@H](C)C(=O)N[C@@H](CCC(N)=O)C(=O)N[C@H](C(N)=O)C(C)C [compound 45] (Ac-VLSLD[dV]PIKLK([γGlu-C16 diacid])KILLEQEKQKKQREQAETN[Aib]QILAQV-NH2)
9.60	5 % I	< 6.60	CC[C@H](C)[C@H](NC(C)=O)C(=O)N[C@H](C(=O)N[C@@H](CC(C)C)C(=O)N[C@@H](CO)C(=O)N[C@@H](CC(C)C)C(=O)N[C@@H](CC(=O)O)C(=O)N[C@@H](C(=O)N1CCC[C@H]1C(=O)N[C@H](C(=O)N[C@@H](CCCCN)C(=O)N[C@@](C)(CC(C)C)C(=O)N[C@@H](CCCCNC(=O)CC[C@H](NC(=O)CCCCCCCCCCCCCCC(=O)O)C(=O)O)C(=O)N[C@@H](CCCCN)C(=O)N[C@H](C(=O)N[C@@H](CC(C)C)C(=O)N[C@@H](CC(C)C)C(=O)N[C@@H](CCC(=O)O)C(=O)N[C@@H](CCC(N)=O)C(=O)N[C@@H](CCC(=O)O)C(=O)N[C@@H](CCCCN)C(=O)N[C@@H](CCC(N)=O)C(=O)N[C@@H](CCCCN)C(=O)N[C@@H](CCCCN)C(=O)N[C@@H](CCC(N)=O)C(=O)N[C@@H](CCCNC(=N)N)C(=O)N[C@@H](CCC(=O)O)C(=O)N[C@@H](CCC(N)=O)C(=O)N[C@@H](C)C(=O)N[C@@H](CCC(=O)O)C(=O)N[C@H](C(=O)N[C@@H](CC(N)=O)C(=O)NC(C)(C)C(=O)N[C@@H](CCC(N)=O)C(=O)N[C@H](C(=O)N[C@@H](CC(C)C)C(=O)N[C@@H](C)C(=O)N[C@@H](CCC(N)=O)C(=O)N[C@H](C(N)=O)C(C)C)[C@@H](C)CC)[C@@H](C)O)[C@@H](C)CC)[C@@H](C)CC)C(C)C)C(C)C [compound 44] (Ac-IVLSLD[dV]PIK[αMeL]K([γGlu-C16 diacid])KILLEQEKQKKQREQAETN[Aib]QILAQV-NH2)
